# In publication PMC3322948, “Phase I first-in-human study of TAK-285, a novel investigational dual HER2/EGFR inhibitor, in cancer patients” (British Journal of Cancer, 2012):
# Assay: Phase I safety, DLT and MTD in patients with solid tumours
# Type: in vivo
# Text: This was a phase I, multicentre, open-label study, conducted to investigate the safety, pharmacokinetics (PKs), and determine the maximum tolerated dose (MTD) of oral TAK-285 in patients with solid tumours. Two cohorts were planned for this study: a dose escalation cohort and a repeated administration cohort. In the dose escalation cohort, patients received a single oral dose of TAK-285, followed by 2–6 days of observation without treatment, followed by treatment with the same dose if the safety was confirmed. In this cohort, patients received TAK-285 […]. One cycle was 4 weeks, consisting of 3 weeks of treatment and 1 week of observation without treatment. TAK-285 was given once daily (q.d.) or twice daily (b.i.d.). The dose was escalated from a starting dose of 50 mg until the MTD was determined. In the repeated administration cohort, patients were treated with oral TAK-285 at the MTD for at least 4 weeks in order to confirm safety.
# In the dose escalation cohort, the dose of TAK-285 was decided by consideration of adverse events (AEs) observed during the first cycle. […] Dose escalation was continued until the MTD was determined. The dose of TAK-285 was increased by 100 or 40% in accordance with accelerated titration designs reported previously ([Simon et al, 1997]). A DLT was defined as any TAK-285-related grade 4 haematological toxicity, grade 3 or worse non-haematological toxicity, grade 3 or worse neutropenia (<1000 mm^–3) with fever of 38 °C or higher, or toxicity resulting in cessation of treatment for >21 consecutive days (including the stipulated period of observation without treatment).
# Safety evaluations included vital signs (oxygen saturation, body temperature, breathing rate, blood pressure and pulse), clinical laboratory tests, lung function tests (pulmonary surfactant protein-A, pulmonary surfactant protein-D, Krebs von den Lunge-6 and arterial blood gas analysis), chest X-ray, and 12-lead electrocardiogram (ECG). These tests were performed weekly with the exception of chest X-rays (every 4 weeks), arterial blood gas analysis (at screening) and ECG (4 time points each at screening, on day 1 and day 8, after DLT assessment, one time point every 4 weeks). All ECG charts were submitted to the ECG evaluation committee to assess cardiac function. Adverse events were graded based on the National Cancer Institute Common Toxicity Criteria for Adverse Events, version 3.0 (Bethesda, MD, USA).
structure (smiles),measurement,setting,value
CC(C)(O)CC(=O)NCCn1ccc2ncnc(Nc3ccc(Oc4cccc(C(F)(F)F)c4)c(Cl)c3)c21 [TAK-285],patients who died during the study,cause considered unrelated to TAK-285,Two
same,"Alanine aminotransferase increased ⩾Grade 3, number of patients","human, in vivo",4
same,"Alanine aminotransferase increased, incidence","human, in vivo",46.2%
same,"Alanine aminotransferase increased, number of patients","human, in vivo",12
same,"Any adverse events ⩾Grade 3, number of patients","human, in vivo",12
same,"Any adverse events, incidence","human, in vivo",100.0%
same,"Any adverse events, number of patients","human, in vivo",26
same,"Aspartate aminotransferase increased ⩾Grade 3, number of patients","human, in vivo",3
same,"Aspartate aminotransferase increased, incidence","human, in vivo",46.2%
same,"Aspartate aminotransferase increased, number of patients","human, in vivo",12
same,"Blood alkaline phosphatase increased ⩾Grade 3, number of patients","human, in vivo",0
same,"Blood alkaline phosphatase increased, incidence","human, in vivo",19.2%
same,"Blood alkaline phosphatase increased, number of patients","human, in vivo",5
same,"Blood bilirubin increased ⩾Grade 3, number of patients","human, in vivo",1
same,"Blood bilirubin increased, incidence","human, in vivo",34.6%
same,"Blood bilirubin increased, number of patients","human, in vivo",9
same,"Blood creatinine increased ⩾Grade 3, number of patients","human, in vivo",0
same,"Blood creatinine increased, incidence","human, in vivo",11.5%
same,"Blood creatinine increased, number of patients","human, in vivo",3
same,"Blood lactate dehydrogenase increased ⩾Grade 3, number of patients","human, in vivo",1
same,"Blood lactate dehydrogenase increased, incidence","human, in vivo",19.2%
same,"Blood lactate dehydrogenase increased, number of patients","human, in vivo",5
same,"Cancer pain ⩾Grade 3, number of patients","human, in vivo",1
same,"Cancer pain, incidence","human, in vivo",19.2%
same,"Cancer pain, number of patients","human, in vivo",5
same,"Constipation ⩾Grade 3, number of patients","human, in vivo",0
same,"Constipation, incidence","human, in vivo",26.9%
same,"Constipation, number of patients","human, in vivo",7
same,"Decreased appetite ⩾Grade 3, number of patients","human, in vivo",2
same,"Decreased appetite, incidence","human, in vivo",23.1%
same,"Decreased appetite, number of patients","human, in vivo",6
same,"Diarrhoea ⩾Grade 3, number of patients","human, in vivo",0
same,"Diarrhoea, incidence","human, in vivo",34.6%
same,"Diarrhoea, number of patients","human, in vivo",9
same,"Dry skin ⩾Grade 3, number of patients","human, in vivo",0
same,"Dry skin, incidence","human, in vivo",15.4%
same,"Dry skin, number of patients","human, in vivo",4
same,"Gamma-glutamyltransferase increased ⩾Grade 3, number of patients","human, in vivo",4
same,"Gamma-glutamyltransferase increased, incidence","human, in vivo",26.9%
same,"Gamma-glutamyltransferase increased, number of patients","human, in vivo",7
same,"Haemoglobin decreased ⩾Grade 3, number of patients","human, in vivo",1
same,"Haemoglobin decreased, incidence","human, in vivo",11.5%
same,"Haemoglobin decreased, number of patients","human, in vivo",3
same,"Nausea ⩾Grade 3, number of patients","human, in vivo",0
same,"Nausea, incidence","human, in vivo",19.2%
same,"Nausea, number of patients","human, in vivo",5
same,"Pyrexia ⩾Grade 3, number of patients","human, in vivo",0
same,"Pyrexia, incidence","human, in vivo",23.1%
same,"Pyrexia, number of patients","human, in vivo",6
same,"Rash ⩾Grade 3, number of patients","human, in vivo",0
same,"Rash, incidence","human, in vivo",42.3%
same,"Rash, number of patients","human, in vivo",11
same,"Stomatitis ⩾Grade 3, number of patients","human, in vivo",0
same,"Stomatitis, incidence","human, in vivo",11.5%
same,"Stomatitis, number of patients","human, in vivo",3
same,"Vomiting ⩾Grade 3, number of patients","human, in vivo",0
same,"Vomiting, incidence","human, in vivo",15.4%
same,"Vomiting, number of patients","human, in vivo",4
same,grade 4 AEs related to TAK-285,"human, in vivo",no grade 4 AEs
same,grade of diarrhoea,"human, in vivo",≤ 2 grade
same,grade of rash,"human, in vivo",≤ 2 grade
same,"lung function tests, chest X-rays, vital signs or ECGs","human, in vivo",No clinically significant changes
same,"patients with AEs considered related to TAK-285, number","human, in vivo",22
same,"patients with AEs considered related to TAK-285, percent","human, in vivo",84.6%
same,patients with dose-limiting toxicities,"human, in vivo",two
same,pneumonitis,"human, in vivo",not reported
same,"related AEs grade 2, number of patients","human, in vivo",11
same,"related AEs grade 2, percent of patients","human, in vivo",42.3%
same,"related AEs grade 2 or lower, number of patients","human, in vivo",17
same,"related AEs grade 2 or lower, percent of patients","human, in vivo",65.4%
same,"related AEs grade 3, number of patients","human, in vivo",5
same,"related AEs grade 3, percent of patients","human, in vivo",19.2%
same,maximum tolerated dose (MTD),"oral, patients with solid tumours",300 mg b.i.d.
